From patent US20160298082A1, “METHOD FOR OBTAINING IMMUNO-STIMULATORY DENDRITIC CELLS” (TRANSIMMUNE AG, priority 2013, published 2016) come the findings set out here.

Assay [1] relates to MoDC. The assay is described as follows: Cytokine quantification in MoDC supernatants after LPS stimulation (magnetic bead multiplex). Conditions: after LPS; untreated MoDC 6.7. The assay is classed as cell-based, human. On the procedure:
Lymphocytes were treated with 8-MOP (100 ng/mL) and UVA (1 J/cm^2), washed with PBS, and co-cultured in complete media at 37° C. and 5% CO2 with either PUVA-treated or untreated-MoDC in a ratio of 5 or 10 lymphocytes to 1 MoDC. MoDC treated for 24 hr with 100 nM dexamethasone (Sigma) served as the positive control group. After 24 hr, cells were harvested and MoDC were re-purified. […] CD11c^+ MoDC were re-plated at 0.5-1.0×10^6 cells/mL in complete media and stimulated with 100 ng/mL LPS (Sigma). 24 hr after LPS stimulation, cells were harvested for RNA isolation and immunophenotyping, and supernatants were collected for cytokine quantification.
(§1) Culture supernatants were analyzed in a multiplex format utilizing magnetic beads to IL-6, IL-8, IL-10, IL-12p70, IFN-γ, TNF-α, RANTES, MCP-1, and MIP-1β (BioRad Laboratories). For siRNA experiments, supernatants were analyzed with enzyme-linked immunosorbent assay (ELISA) kits for IL-10 (R&D Systems) and IL-12p70 (Enzo Life Science). All samples and standards were run in duplicate and analyzed using the LUMINEX 200 (LUMINEX), or the BioTek EL800 (BioTek).

The subject of assay [2] is MoDC. Kind of assay: IL-10 and IL-12p70 ELISA in siRNA experiments. The assay is classed as cell-based, human. Conditions: siRNA experiment, not transfected. On the procedure:
Silencer select pre-designed and validated GILZ siRNA (Invitrogen), with off-target prediction algorithms, was used to knockdown GILZ expression. Mo-DC were transfected using Lipofectamine RNAiMAX Reagent (Invitrogen). RNAi duplex and lipofectamine reagent were incubated together for 20 min, then added to MoDC cultures and incubated for 2 hr at 37° C. and 5% CO2. Transfected MoDC were treated in an identical fashion as described for the MoDC/lymphocyte co-cultures. MoDC were also transfected with scramble siRNA.
as §1
(In general: In an ELISA, binding on a coated surface is turned into a signal by an enzyme label.)

The subject of assay [3] is GILZ. Kind of assay: GILZ mRNA expression in CD11c+ MoDC (quantitative real-time PCR). The assay is classed as cell-based, human. Conditions: relative to untreated MoDC cultured alone; 24 hr (FIG. 13B); dex 100 nM; PUVA 100 ng/mL, 1 J/cm^2. The procedure: Monocytes were cultured at a density of 5×10^6 cells/mL in 6- and 12-well polystyrene tissue culture plates at 37° C. and 5% CO2 in RPMI-1640 (Gibco) supplemented with heat-inactivated 15% AB serum (Gemini) and 1% penicillin/streptomycin (now referred to as complete media). 800 IU/mL recombinant human GM-CSF (R&D Systems) and 1000 IU/mL recombinant human IL-4 (R&D Systems) were added to cultures for 36 hr to induce monocyte to DC differentiation as described.
Non-adherent cells (purity: 66.0±4.5% CD3^+) removed during plastic adherence will now be generally referred to as lymphocytes. Lymphocytes were treated with 8-MOP (100 ng/mL) and UVA (1 J/cm^2), washed with PBS, and co-cultured in complete media at 37° C. and 5% CO2 with either PUVA-treated or untreated-MoDC in a ratio of 5 or 10 lymphocytes to 1 MoDC. […] 24 hr after LPS stimulation, cells were harvested for RNA isolation and immunophenotyping, and supernatants were collected for cytokine quantification.
RNA was isolated from CD11c^+ MoDC using QIAShredder columns (QIAGEN) and the RNeasy Mini Kit (QIAGEN) with on-column Dnase I treatment (QIAGEN). RNA yield and purity were assessed using a NanoDrop ND-1000 spectrophotometer. cDNA was obtained using the High Capacity cDNA Reverse Transcription Kit (Applied Biosystems) in a 96-well thermocycler (MJ Research PTC-200). […]

In assay [4] the test system is platelets. Kind of assay: Platelet adhesion to protein-coated Vena8 channels under flow. The assay is classed as cell-based, human. Conditions: for Platelet adhesion to fibrinogen-coated plates after pre-incubation of platelets with peptide / Platelet adhesion to fibronectin-coated plates after pre-incubation of platelets with peptide: PRP pre-incubated with 2 mM peptide 20 min. The procedure: Platelet adhesion experiments were performed using the Vena8 flow chamber described above. Fibrinogen and fibronectin (Sigma) were dissolved in PBS to a final concentration of 200 mcg/ml. Channels of the Vena8 chips were incubated at room temperature in a humidified chamber for 2 hours with the protein solution, autologous plasma, or PBS alone. The channels were washed with 5× the volume RPMI. Platelet-rich-plasma was then perfused through the protein-coated channel at the indicated shear-stress, held constant. For each channel, still images were acquired exactly 90 seconds into the experiment at 4 pre-defined low power fields located along the flow path (fields were centered at 2500, 7500, 12500, and 17500 microns from the start point of infusion).
Some experiments involved pre-treating platelet-rich-plasma with protein fragments prior to infusion through the channels. Small RGD peptides, containing the amino-acid sequence Arg-Gly-Asp-Ser; DRG peptides, contain the amino-acid sequence Ser-Asp-Gly-Arg; or fragment 400-411 of fibrinogen, containing the amino-acid sequence His-His-Leu-Gly-Gly-Ala-Lys-Gln-Ala-Gly-Asp-Val, were incubated at a concentration of 2 mM with PRP for 20 minutes at room temperature. The PRP was then perfused through the channels as previously described.

For assay [5], the system named is monocyte-platelet interactions. Kind of assay: Monocyte-platelet interactions on platelet-coated plates under flow (receptor-ligand studies). The assay is classed as cell-based, human. The procedure: Platelet-coated Vena8 channels were pre-treated with either 40 μg/ml anti-P-selectin (R&D Systems) or 40 μg/ml of an isotype control for 30 minutes at room temperature, then washed with 5× the volume RPMI. Mononuclear cell suspensions were pre-treated with either RGD or DGR peptides at a concentration of 2.5 mM. Video samples lasting 400 frames (26.3 seconds) were recorded 60 seconds after commencement of flow using a lower power field of view spanning 400 microns and centered at 7500 microns from the flow start point.
The monocyte-platelet interactions observed on video were divided into two categories: (1) short-acting, arbitrarily defined as contact occurring for less than 3 seconds (46 frames), and (2) long-acting, defined as contact longer than 3 seconds, including stable binding. Since it had been previously determined that the platelets in the ECP system were in an activated state, and that activated platelets express an array of proteins including P-selectin and RGD containing proteins (e.g. fibronectin, fibrinogen, and vitronectin), it was sought to determine the involvement, if any, of these proteins in either short or long-duration interactions. Plates were pre-coated with platelets, and four conditions tested: (1) platelets pre-treated with an irrelevant isotype control, and monocytes untreated (P+RGD+); (2) platelets pre-treated with an irrelevant isotype control, and monocytes pre-incubated with RGD peptides (P+RGD−); (3) platelets pre-treated with anti-P-selectin, and monocytes untreated (P−RGD+); (4) platelets pre-treated with anti-P-selectin, and monocytes pre-treated with RGD peptides (P−RGD−). It was assumed that pre-treating monocytes with RGD peptides should result in a decreased in the number of free RGD-recognizing receptors available to interact with RGD-containing proteins expressed by the platelets. […] As shown by FIG. 6, both short-acting and long-acting interactions were maximal when neither RGD nor P-selectin were blocked (P+RGD+); the level of interaction in all other conditions was expressed as a percentage of this maximum. […]

For assay [6], the target named is β1 integrin (CD29), active (open) conformation, on monocytes (human) (UniProt P05556). The assay is described as follows: flow cytometry of monocytes immediately after flow over platelet-coated plates, low number of platelet interactions. A general note: A flow cytometer gives signals particle by particle.
β1 integrin (CD29), active (open) conformation, on monocytes (human), sequence (P05556 21-798): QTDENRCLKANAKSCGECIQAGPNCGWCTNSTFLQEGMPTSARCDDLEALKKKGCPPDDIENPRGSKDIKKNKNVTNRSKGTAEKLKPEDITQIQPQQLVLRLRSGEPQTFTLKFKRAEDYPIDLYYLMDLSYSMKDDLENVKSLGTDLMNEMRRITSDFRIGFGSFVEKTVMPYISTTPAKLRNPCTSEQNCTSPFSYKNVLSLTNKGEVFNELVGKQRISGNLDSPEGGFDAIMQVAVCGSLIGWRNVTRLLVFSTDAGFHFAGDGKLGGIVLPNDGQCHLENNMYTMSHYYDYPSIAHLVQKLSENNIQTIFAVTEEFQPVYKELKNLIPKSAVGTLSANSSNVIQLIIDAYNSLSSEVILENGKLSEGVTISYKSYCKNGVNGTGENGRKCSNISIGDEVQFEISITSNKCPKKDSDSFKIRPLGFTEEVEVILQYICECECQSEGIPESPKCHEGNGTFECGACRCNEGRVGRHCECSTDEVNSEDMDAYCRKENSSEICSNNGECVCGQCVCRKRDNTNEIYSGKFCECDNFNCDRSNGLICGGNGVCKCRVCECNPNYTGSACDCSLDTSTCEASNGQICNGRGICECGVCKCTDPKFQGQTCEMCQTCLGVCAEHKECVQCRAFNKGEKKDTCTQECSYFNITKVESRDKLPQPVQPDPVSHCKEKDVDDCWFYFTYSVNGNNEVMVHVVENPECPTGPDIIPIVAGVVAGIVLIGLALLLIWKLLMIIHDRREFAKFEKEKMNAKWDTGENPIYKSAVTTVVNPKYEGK
Assay [7] shares this target. Kind of assay: flow cytometry of monocytes immediately after flow over platelet-coated plates, high number of platelet interactions.
For assay [8] the target is unchanged. Kind of assay: flow cytometry of monocytes before passage through the plates.
For assay [9], the target named is RGD-recognizing receptors (on monocytes). Kind of assay: cell-based or functional assay.
The mark [10] stands for this setting: 0.5 dyne/cm2, relative to P+RGD+ maximum.

“Also recorded” adds a separate entry of the source. No end group written: not given here. Some results are limits rather than exact numbers.

With `C[C@@H]1C[C@H]2[C@@H]3CCC4=CC(=O)C=C[C@]4(C)[C@@]3(F)[C@@H](O)C[C@]2(C)[C@@]1(O)C(=O)CO` [dexamethasone], in assay [1], the “Ratio of IL-10 to IL-12p70, MoDC cultured alone” value is 67.7. Also, the “IL-10 to IL-12p70 ratio, non-transfected MoDC cultured alone” value in [2] is listed as 15.3. In addition, in assay [3], the “GILZ up-regulation, MoDC cultured alone” value was 4.29 fold.

Take “Arg-Gly-Asp-Ser (RGDS; printed: Arg-Gly-Asp-Ser) [RGD peptides, small RGD peptides]”: in [4], the “Platelet adhesion to fibrinogen-coated plates after pre-incubation of platelets with peptide” value is reported as “not significantly altered” and the “Platelet adhesion to fibronectin-coated plates after pre-incubation of platelets with peptide” value is listed as “decreased adhesion significantly”. Also, in assay [5] (setting [10]), the “Long-duration (>3 s) monocyte-platelet interactions” value is recorded as “significant decrease” and the “Short-duration (<3 s) monocyte-platelet interactions” value is “did not significantly alter; also recorded: no change”. The “Decrease of long-duration monocyte-platelet interactions” value in assay [5] (monocytes pre-incubated with RGD peptides 2.5 mM (P+RGD−)) came to 44%.

For “HHLGGAKQAGDV [gamma fragments, gamma component of fibrinogen, amino acids 400-411]”, in assay [4], the “Platelet adhesion to fibrinogen-coated plates after pre-incubation of platelets with peptide” value is on record as “decreased” and the “Platelet adhesion to fibronectin-coated plates after pre-incubation of platelets with peptide” value is given as “had no effect”. The “Platelet adhesion to fibrinogen-coated plates after pre-incubation of platelets with peptide” value in [4] (listed as peptide fragments corresponding to amino acids 400-411 of fibrinogen) is recorded as “significantly decreased”.

Turning to “anti-CD29 HUTS-21 (BD Biosciences) (antibody)”, the percent of monocytes that bound the antibody (β1 in the active form) is 9% in [6] and 71% in assay [7]. In addition, the percent of monocytes that bound the antibody (baseline integrin activation) in [8] is less than 10%.

For the molecule fibrinogen, the “Platelet adhesion to plates coated with the protein” value in [4] (coating 200 mcg/ml, wall shear stress 0.2 to 6.0 dyne/cm^2) was “highest concentrations of platelets adhered”.

B1: RGD peptides, containing the amino-acid sequence Arg-Gly-Asp-Ser (peptide)
peptide: RGDS
In assay [9], B1 registered a long-duration monocyte-platelet interactions under flow (video microscopy) of 44%.
